Source: US20060099712A1, “Correlation of anti-cancer activity of dyes with redox potentials” (Eastman Kodak Company, priority 2004, published 2006)
Several values for one entry are separate records, joined by “and”; a condition that tells them apart may be missing. Identical values can stand only once.

Tested on: CX-1 Human Colon Carcinoma
Experiment: Clonogenic dye screening assay, CX-1 cells (IC50)
Format: cell-based
Design: CX: unit not given here
Conditions: for CX: CX-1 cells; for CV/CX: selectivity ratio of IC50 values; for CX (IC50 in the CX-1 cell line): 3 hrs treatment, colonies after 7-10 days, unit from method b117-118; for CV/CX (selectivity, kill ratio): ratio of IC50 in normal CV-1 line to IC50 in carcinoma CX-1 line
Excerpt: CX-1 is a cancerous human colon adenocarcinoma cell line. CV-1 is a non-cancerous control, which is a kidney epithelial cell line from an African green monkey. IC50 is the dye concentration at which 50% of the cells are killed. Selectivity or kill ratio is defined as the ratio of […] at IC50 for both CX-1 and CV-1. A ratio with a high number indicates a high selectivity.
The dyes were screened in two cell lines. CX-1 is a human colon adenocarcinoma cell line. CV-1 is a kidney epithelial cell line from an African green monkey. CV-1 was used as a reference because no normal human epithelial cell line is available for clonogenic assay.
In the initial screen, dyes were examined at six different concentrations to generate a dose response curve. An IC50 value, the concentration at which 50% of the cells are killed, was then calculated. Initially, a dye concentration of 1.0 μg/mL was the highest examined for the CX-1 cell line and 0.005 μg/mL was the lower limit. The corresponding limits on the CV-1 cell line were […].
The screening procedure used a response curve that was determined from eight dye concentrations. The upper and lower limits of CX-1 were 0.32 and 0.0015 μg/mL, respectively, and the corresponding revised limits on CV-1 were 3.2 and 0.025 μg/mL. The screening results were reported by assigning an IC50 value to each dye for the CV-1 and CX-1 cell lines. These values will be referred to herein simply as CV and CX. The most desirable result would be to have a dye that was highly toxic to carcinoma cells but nontoxic to ‘normal’ cells. One measure of this type of selectivity is the ratio of the IC50's in the normal cell line to that in the carcinoma line, CV/CX.
Compounds are screened via an in vitro assay. CV-1 and CX-1 cells are seeded into separate assay plates. The plates are treated with varying concentrations of test compounds, rinsed, and colonies allowed to grow. IC50's are determined and drugs evaluated based on their selectivity and toxicity. Assay Steps: • I. Seeding Cells • II. Weighing • III. Preparation of Solution • IV. Treatment • V. Rinsing and Feeding • VI. Fixing • VII. IC50 Determination I. Seeding Cells
The cells should be seeded 16-30 hours before treatment. The media for CV-1 cells is DME+5% calf serum +5% Nuserum. The media for CX-1 cells is RPMI/DME (50/50)+5% calf serum +5% Nuserum.
(c) number of cells based on 2000 CX-1 cells/well and 1000 CV-1 cells/well. NOTE: Always make enough cell suspension for 1 extra plate to allow for volume loss during transfers.
• (a) For CV-1: 256 ug/ml-256 ul of 1 mg/ml stock +744 ul DMSO • (b) For CX-1: 25.6 ug/ml-100 ul of 256 ug/ml+900 ul DMSO IV. Treatment • 1. Each plate is treated with 4 test compounds, one positive control and one negative control. • 2. Serial dilutions of the compounds are made in the following way:
2 multi-well pipetters are used. One is set for 10 ul and one for 200 ul. Each is equipped with 6 tips spaced such that they fit into the 6 rows of a plate. 390 ul of media is added to the first column of each plate. 10 ul each of 4 compound solutions, a positive and a negative control are taken up and put into the first column of wells. The 200 ul pipetter is then placed in the same wells, pipetted up and down 3 times and two 200 ul aliquots are moved to the next column of wells. This column is pipetted up and down 3 times and 400 ul moved to column 3, etc. The final 400 ul excess from column 8 is discarded.
• 3. Label the plates along the front, each row −1 compound. • 4. Incubate the plates at 37° C. for 3 hrs. V. Rinsing • 1. Prepare several bottles of CX-1 and CV-1 media. • 2. Check for precipitate in first column of each plate and note. • 3. Starting with the plates treated first, rinse several plates at a time by aspirating the treatments and refilling each well with 0.5-1.0 ml of the rinse media. Aspirate and refill 2 more times for a total of 3 rinses. • 4.

[1] = Table XVII, benzotellurazole derivatives
[2] = listed as drawing 41|Et|5-Cl|5-Cl

Compound	CX (IC50 in the CX-1 cell line)	CV/CX (selectivity, kill ratio)	further results
CCN1C(=CC=Cc2[te]c3ccc(C)cc3[n+]2CC)[Te]c2ccc(C)cc21 [R=E, X=Te, Z1=5-Me, R2=H, Z2=5-Me]			CX [1]: 0.052; CV/CX (Table XVII): 7.7
OCCN1C(=CC=Cc2sc3ccccc3[n+]2CCO)Sc2ccccc21 [drawing 36|CCOH|CCOH]	>0.32 µg/mL	10.0	CV/CX (selectivity, kill ratio) (listed as N,N′-di(2-hydroxyethyl) dye): not active
CCC(/C=C1\Oc2ccc3ccccc3c2N1CC)=C\c1sc2ccc3ccccc3c2[n+]1CC [drawing 40|E|Et]	0.06 µg/mL	5.0	
CCN1/C(=C/C=C/c2sc3ccc(OC)cc3[n+]2CC)Sc2ccc(OC)cc21 [drawing 41|Et|5-MeO|5-MeO]		40.0	
CCN1C(=CC=Cc2sc3ccc(Cl)cc3[n+]2CC)Sc2ccccc21 [drawing 41|Et|5-Cl|H]	0.02 µg/mL	40.0	
CC[n+]1c(/C=C(/C=C2\Sc3ccccc3N2C)SC)sc2ccccc21 [drawing 38|E/M|H|SMe|H]	0.008 µg/mL	37.5	
CCN1/C(=C/C(=C/c2sc3ccccc3[n+]2CC)C(=S)SC)Sc2ccccc21 [drawing 38|E|H|C(═S)SC|H]		>10.0	
CCN1/C(=C/C=C(\O)c2sc3ccccc3[n+]2CC)Oc2ccccc21 [drawing 39|E|OH|H]		10.0	
CCN1/C(=C/C(=C/c2oc3ccccc3[n+]2C)SC)Sc2ccc(Cl)cc21.[I-] [Dye D-169]		100.0	
CCN1/C(=C/C=C/c2[te]c3cc(OC)c(OC)cc3[n+]2C)Sc2ccccc21 [R=M/E, X=S, Z1=5,6-MeO, R2=H, Z2=H]			CX [1]: 0.5; CV/CX (Table XVII): 2.0
CCOC(=O)c1ccc2c(c1)N(CC)/C(=C/C=C/c1oc3ccc(C(=O)OCC)cc3[n+]1CC)O2 [drawing 45|5-CO2Et|5-CO2Et]	>.32 µg/mL	10.0	
CCN1C(=CC=Cc2sc3ccc(OC)cc3[n+]2CC)Sc2ccc(C)cc21 [drawing 41|Et|5-MeO|5-Me]	0.015 µg/mL	13.3	
CCN1/C(=C/C=C/c2sc3cc(C#N)ccc3[n+]2C)Sc2ccccc21 [drawing 41|M/E|6-CN|H]	0.16 µg/mL	20.0	
CN1C(=CC=Cc2[te]c3ccccc3[n+]2C)[Te]c2ccccc21 [Dye B19682]			CX (Table XV, symmetrical dyes): 0.3; CV/CX (Table XV): 16.7
CCN1/C(=C/C=C/c2sc3c(OC)cccc3[n+]2CC)Sc2c(OC)cccc21 [drawing 41|Et|7-MeO|7-MeO]		5.0	
CCn1c(=O)/c(=C/C=C2\C=Cc3cccc4c3N2CCC4)s/c1=C\c1oc2ccccc2[n+]1CC [Dye D-143]	0.1 µg/mL	100	
CC(=Cc1sc2ccccc2[n+]1C)C=C1Sc2ccccc2N1C [drawing 38|M|H|Me|H]	0.02 µg/mL	5.0	
CCN(CC)CCN1/C(=C/C=C/c2oc3ccccc3[n+]2CC)Sc2ccccc21.I.[I-] [Dye D-116]		80	

Compound	CX (IC50 in the CX-1 cell line)	CV/CX (selectivity, kill ratio)	further results
CN1C2=C(CCc3ccccc32)S/C1=C\C=C\c1sc2c([n+]1C)-c1ccccc1CC2 [drawing 43|M|4,5-H|4,5-H]	0.20 µg/mL	4.0	
CCN1C(=CC=Cc2oc3ccc(OC)cc3[n+]2CC)Oc2ccc(OC)cc21 [drawing 45|5-MeO|5-MeO]	0.31 µg/mL	5.16	
CCN1C(=CC(C)=Cc2sc3ccccc3[n+]2CC)Sc2ccccc21 [drawing 38|E|H|Me|H]		8.0	
CCN1C=C(c2ccccc2)SC1=CC=Cc1sc2ccccc2[n+]1CC [Dye 5-Ph-thiazole]			CX (Table XVI, unsymmetrical dyes): 0.03; CV/CX (Table XVI): 16.7
CCN1/C(=C/C(C)=C/c2[te]c3ccc(C)cc3[n+]2CC)Sc2ccc(Cl)cc21 [R=E, X=S, Z1=5-Me, R2=Me, Z2=5-Cl]			CX [1]: 0.10; CV/CX (Table XVII): 10.0
CCN1/C(=C/C=C/c2sc3cc(Cl)ccc3[n+]2CC)Sc2cc(Cl)ccc21 [Dye D-105]	0.008 µg/mL	112.5	Selectivity (Table 1, cell line not given, values equal CV/CX of Table II): 112.5
CCN1/C(=C/C(=C/c2sc3ccc4ccccc4c3[n+]2CC)SC)Oc2ccc3ccccc3c21 [drawing 40|E|SMe]	0.04 µg/mL	5.0	
CCN1/C(=C/C=C/c2oc3c(Cl)c(C)c(Cl)cc3[n+]2CC)Oc2c1cc(Cl)c(Cl)c2C [drawing 45|5,7-Cl, 6-Me|5,6-Cl, 7-Me]		>10.0	
C=C(Br)C[n+]1c(/C=C/C=C2\Oc3ccccc3N2CC)sc2ccccc21 [R1=CC(Br)═C, R2=Et]			CX (Table XXI, oxathiacarbocyanine nitrogen substituents): 0.03; CV/C (Table XXI, selectivity ratio, value of 1 where dye inactive): 33.3
CC[n+]1c(/C=C/C=C2\[Te]c3ccccc3N2C)sc2ccc3ccccc3c21.[I-] [Dye D-151]	0.007 µg/mL	71 and 71.42	CX [1]: 0.007; CV/CX (Table XVII): 71.4
CC[n+]1c(/C=C(/C=C2\Oc3ccccc3N2C)Sc2ccccc2)sc2ccccc21 [drawing 39|M/E|H|SPh]	0.1 µg/mL	3.0	
CCC(/C=C1\Oc2ccc3ccccc3c2N1C)=C\c1sc2ccc3ccccc3c2[n+]1C [drawing 40|M|Et]	0.08 µg/mL	5.0	
CCN1/C(=C/C=C/c2sc3ccccc3[n+]2CC)Oc2cc(C)c(Cl)cc21 [drawing 44|E|H|5-Cl, 6-Me]		11.4	
CCN1/C(=C/C=C/c2sc3ccccc3[n+]2CC(=O)N2CCOCC2)Oc2ccccc21 [drawing 37|CC(═O)morpholino|Et]	>1.0 µg/mL	10.0	
CCN1C(=CC=Cc2sc3ccc(Cl)cc3[n+]2CC)Sc2ccc(Cl)cc21 [drawing 41|ET|5-Cl|5-Cl]	0.04 µg/mL	40.0	CX (IC50 in the CX-1 cell line) [2]: 0.30 µg/mL; CV/CX (selectivity, kill ratio) [2]: 16.7
CCN1/C(=C/C=C/c2c3ccccc3c3ccccc3[n+]2C)Sc2ccccc21 [Dye D-129]	0.008 µg/mL	87.5	CX (Table XVI, unsymmetrical dyes): 0.008; CV/CX (Table XVI): 87.5
CCN1/C(=C/C(=C/c2[te]c3ccc(OC)cc3[n+]2CC)c2ccccc2)Sc2ccccc21 [R=E, X=S, Z1=5-MeO, R2=Ph, Z2=H]			CX [1]: 0.3; CV/CX (Table XVII): 26.6
C(/C=C/c1sc2cccc3c2[n+]1CCC3)=C1/Sc2cccc3c2N1CCC3 [Dye D-102]	<0.005 µg/mL	160	
